Test results: ChEMBL document CHEMBL4020775, “QSAR studies of the bioactivity of hepatitis C virus (HCV) NS3/4A protease inhibitors by multiple linear regression (MLR) and support vector machine (SVM)” (Bioorg Med Chem Lett, 2017)

What was measured:
[1] = Inhibition of HCV NS3/4A protease; parameters: species or system Hepacivirus hominis
[2] = Inhibition of HCV NS3/4A protease using AcDTEDVVP(Nva)-O-PAP as substrate pretreated with substrate for 3 mins followed by enzyme addition measured after 60 mins by spectrophotometric method; parameters: species or system Hepacivirus hominis

IC50 [1] [nM] | Ki [2] [nM] | Structure (SMILES)
2.6 |  | C=C[C@@H]1C[C@]1(NC(=O)[C@@H]1C[C@@H](Oc2ncc(OC)c3ccc(Cl)cc23)CN1C(=O)[C@@H](NC(=O)OC(C)(C)C)C(C)(C)C)C(=O)NS(=O)(=O)C1CC1 [ASUNAPREVIR]
 | 14 | CC(C)(C)NC(=O)N[C@H](C(=O)N1C[C@H]2[C@@H]([C@H]1C(=O)NC(CC1CCC1)C(=O)C(N)=O)C2(C)C)C(C)(C)C (some centres undefined) [BOCEPREVIR]
0.18 |  | Cc1cnc(C(=O)N[C@H]2CCCCC/C=C\[C@@H]3C[C@@]3(C(=O)NS(=O)(=O)C3CC3)NC(=O)[C@@H]3C[C@@H](Oc4nc5ccccc5c5ccccc45)CN3C2=O)cn1 [PARITAPREVIR]
1030 |  | CCC[C@H](NC(=O)[C@@H]1[C@H]2CCC[C@H]2CN1C(=O)[C@@H](NC(=O)[C@@H](NC(=O)c1cnccn1)C1CCCCC1)C(C)(C)C)C(=O)C(=O)NC1CC1 [TELAPREVIR]
